Patent publication US9770451B2, “Composition including ATM inhibitor for reducing cellular senescence and use of the composition” (Samsung Electronics Co., Ltd., priority 2014, dated 2017)

Key:
Assay type in all cases: cell-based, human
[1] = test system: progeria senescent fibroblasts (passage 17); assay: DNA comet assay; settings: CP-466722 0.1 μM, 4 weeks
Protocol: To determine the extent of recovery of the senescent cells to the DNA damage in accordance with the ATM-kinase inhibitor, the DNA comet assay (Trevigen, 4250-050-K) was carried out according to the protocol of the manufacturer. The principle of the DNA comet assay is based on gel electrophoresis. The damaged DNA moves farther away in the electrophoresis process than the undamaged DNA, resulting in the formation of a comet-tail shape. Afterwards, a slide used herein was stained with cyber green (SYBR Green), so that the tail length of the DNA fragment was measured by using fluorescence microscopy to confirm the extent of the DNA damage. The extent of the DNA damage may be measured as a tail moment value obtained by multiplying tail DNA % by the distance of migration of DNA fragmentation from the nucleus or the tail length. […]
To determine the extent of recovery of the senescent cells to the DNA damage in accordance with the ATM-kinase inhibitor, the DNA comet assay (Trevigen, 4250-050-K) was carried out according to the protocol of the manufacturer. […] Afterwards, a slide used herein was stained with cyber green (SYBR Green), so that the tail length of the DAN fragment was measured by using fluorescence microscopy to confirm the extent of the DNA damage. […]

[2] = test system: progeria senescent fibroblasts (passage 17); assay: ROS measurement (MitoSOX Red); settings: CP-466722 0.1 μM
Protocol: (§1) ROS was measured according to the protocol of the manufacturer using a 0.2 μM MitoSOX™ Red reagent (Invitrogen, M36008). In detail, 2 μL of the reagent that was stored in a 1,000-fold concentration was added to a 2 ml medium sufficiently enough to cover the cultured cells that were attached to a coverslip. While being protected from light, the cells were further incubated at a temperature of 37° C. for 30 minutes. The cultured cells were irradiated with a wavelength of 520 nm by using a FACSCaliber (Beckton Dickinson), and then, measured with radiation emitted from a wavelength of 580 nm. The results were analyzed using Cell Quest 3.2 software (Beckton Dickinson). FIG. 12 is a graph showing results of measuring ROS (A) and mitochondrial membrane potential (B) of the progeria senescent fibroblasts (passage 17) that were cultured in the presence of an ATM-kinase inhibitor KU-60019 (0.5 μM).
ROS was measured according to the protocol of the manufacturer using a 0.2 μM MitoSOX™ Red reagent (Invitrogen, M36008). […] The cultured cells were irradiated with a wavelength of 520 nm by using a FACSCaliber (Beckton Dickinson), and then, measured with radiation emitted from a wavelength of 580 nm. The results were analyzed using Cell Quest 3.2 software (Beckton Dickinson).

[3] = test system: progeria senescent fibroblasts (passage 17); assay: SA-β-galactosidase staining; settings: CP-466722 0.1 μM, 4 weeks
[4] = test system: senescent myoblasts (passage 11); assay: ROS measurement (MitoSOX Red); settings: CP-466722 0.1 μM
Protocol: as §1, with “Dickinson).” for “Dickinson). FIG. 12 is a graph showing results of measuring ROS (A) and mitochondrial membrane potential (B) of the progeria senescent fibroblasts (passage 17) that were cultured in the presence of an ATM-kinase inhibitor KU-60019 (0.5 μM).”
as §1, with “by using an FACSCaliber (Beckton” for “by using a FACSCaliber (Beckton”, “(Beckton Dickinson).” for “(Beckton Dickinson). FIG. 12 is a graph showing results of measuring ROS (A) and mitochondrial membrane potential (B) of the progeria senescent fibroblasts (passage 17) that were cultured in the presence of an ATM-kinase inhibitor KU-60019 (0.5 μM).”

COc1cc2ncnc(-n3nc(-c4ccccn4)nc3N)c2cc1OC [CP-466722, 2-(6,7-dimethoxyquinazolin-4-yl)-5-(pyridin-2-yl)-2H-1,2,4-triazol-3-amine]
significantly decreased: DNA damage (tail moment) vs DMSO control [1] | amount of ROS vs control [2] | number of cells that express β-galactosidase vs DMSO control [3] | amount of ROS (superoxide) vs control [4]
